Measurements: US20120171126A1, “NOVEL [3,2-c] HETEROARYL STEROIDS AS GLUCOCORTICOID RECEPTOR AGONISTS COMPOSITIONS AND USES THEREOF” (priority 2009, published 2012)
Where two headings read alike, the source gives them in different places.

Columns and labels:
[1] = system: human glucocorticoid response element coupled with a luciferase reporter gene; assay: GRE-transactivation assay (HeLa-GRE luciferase, TA); format: cell-based
Experimental: HeLa cells were stably transfected with a human glucocorticoid response element coupled with a luciferase reporter gene. Cells were plated in 96 well Packard View Plates (black sides/ clear bottom) at 20 K cells/0.2 ml complete medium. Plates were incubated overnight at 37°/5% CO2. Medium was aspirated and replaced with 150 μl medium containing 5% charcoal-treated FBS and cells incubated overnight again. Test compounds were prepared in 5% charcoal-treated FBS medium. Medium was aspirated from plates and replaced with 100 μl of test compounds or controls. Plates were returned to incubator for exactly 24 hours. To measure induced luciferase, 100 μl of Steady-Glo luciferase assay substrate (Promega) was added to each well. Plates were sealed and mixed on a plate shaker for 5 minutes. Plate bottom opaque seals were added and the plates were allowed to stand for 60 minutes. Luminescence was measured on a Top-Count instrument (Perkin-Elmer).

IL-8 = assay: Glucocorticoid transrepression assay, IL-8 inhibition (TR); format: cell-based; conditions: Homo sapiens
How it was run: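 Human lung epithelial NCI-H292 cells at 75-90% confluence were pretreated with steroid or antagonist for 1 h at 37 °C. TNFα was then added at 10 ng/ml final and cells were incubated overnight, with 10 μM dexamethasone as the maximum-inhibition control. Secreted IL-6 and IL-8 were measured in the medium by MSD multi-spot immunoassay.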

[2] = HeLa cells, 24 hours, luciferase, read-out: EMAX value, GRE-transactivation assay
[3] = Table 1, NCl-H292 cells, TNFα 10 ng/ml
[4] = Table 1, NCl-H292 cells, TNFα 10 ng/ml, read-out: IL-8 inhibition (TR) Emax % inhibition
[5] = Table 2, NCl-H292 cells, TNFα 10 ng/ml
[6] = Table 2, NCl-H292 cells, TNFα 10 ng/ml, read-out: IL-8 inhibition (TR) Emax % inhibition

| SMILES | IC50 (IL-8; [3]) | Emax (IL-8; [4]) | further results |
| --- | --- | --- | --- |
| CCC(=O)O[C@]1(C(=O)SCF)[C@H](C)C[C@H]2[C@@H]3C[C@H](F)C4=CC(=O)C=C[C@]4(C)[C@@]3(F)[C@@H](O)C[C@@]21C [fluticasone propionate, reference compound] |  |  | Emax [1, 2]: 99% |
| C[C@@H]1C[C@H]2[C@@H]3CCC4=CC(=O)C=C[C@]4(C)[C@@]3(F)[C@@H](O)C[C@]2(C)[C@@]1(O)C(=O)CO [dexamethasone, reference compound] |  |  | Emax [1, 2]: 100% |
| CC12Cc3cnn(-c4ccc(F)cc4)c3C=C1CCC1C2[C@@H](O)CC2(C)C1CC[C@]2(O)C(=O)CSc1nc2ccccc2s1 (stereo partly drawn) [Compound 1] | 0.06 to 20 nM | > 80% | Emax [1, 2]: 71% |
| CC12Cc3cnn(CCC#N)c3C=C1CCC1C2[C@@H](O)CC2(C)C1CC[C@]2(O)C(=O)CSc1ccccn1 (stereo partly drawn) [Compound 60] | 66 to 400 nM | < 60% | Emax [1, 2]: 15% |
| CC12Cc3cnn(-c4ccc(F)cc4)c3C=C1CCC1C2[C@@H](O)CC2(C)C1CC[C@]2(O)C(=O)Cn1cc(-c2ccccc2)cn1 (stereo partly drawn) [Compound 1] |  |  | Emax [1, 2]: 69% |
| C[C@]12Cc3cnoc3C=C1CCC1C2[C@@H](O)C[C@@]2(C)C1CC[C@]2(O)C(=O)Nc1nc2cccnc2s1 (stereo partly drawn) [Compound 4-1] |  |  | Emax ([1]; text value for compound 4-1, only a % value printed, read-out: H Hela-GRE luciferase(TA) IC50/Emax(nM, % inhibition)): 0%; Emax (IL-8; text value for compound 4-1, only a % value printed, read-out: IL-8 inhibition(TR) IC50/Emax(nM, % inhibition)): 23% |
| CC12Cc3cnn(C4CCCCC4)c3C=C1CCC1C2[C@@H](O)CC2(C)C1CC[C@]2(O)C(=O)CSc1nc(-c2ccccc2)cs1 (stereo partly drawn) [Compound 133] | 21 to 65 nM | > 80% |  |
| Cc1ccnc(SCC(=O)[C@@]2(O)CCC3C4CCC5=Cc6c(cnn6C6CCCCC6)CC5(C)C4[C@@H](O)CC32C)n1 (stereo partly drawn) [Compound 131] | 0.06 to 20 nM | > 80% | Emax [1, 2]: 83% |
| COc1ccc2sc(SCC(=O)[C@@]3(O)CCC4C5CCC6=Cc7c(cnn7C)CC6(C)C5[C@@H](O)CC43C)nc2c1 (stereo partly drawn) [Compound 25] |  | < 60% |  |
| C[C@]12Cc3cnn(-c4ccc(F)cc4)c3C=C1CCC1C2[C@@H](O)C[C@@]2(C)C1CC[C@]2(O)C(=O)CN1CCN(Cc2ccc(C(F)(F)F)cc2)CC1 (stereo partly drawn) [Compound 5] |  |  | IC50 (IL-8; Table 5, NCl-H292 cells, TNFα 10 ng/ml): 0.06 to 20 nM; Emax (IL-8; Table 5, NCl-H292 cells, TNFα 10 ng/ml, read-out: IL-8 inhibition (TR) Emax % inhibition): > 80% |
| CC12Cc3cnn(-c4ccc(F)cc4)c3C=C1CCC1C2[C@@H](O)CC2(C)C1CC[C@]2(O)C(=O)COc1nc2ccccc2o1 (stereo partly drawn) [Compound 104] | 0.06 to 20 nM | > 80% |  |
| CC12Cc3cnn(C4CCOCC4)c3C=C1CCC1C2[C@@H](O)CC2(C)C1CC[C@]2(O)C(=O)CSc1nc2ccccc2s1 (stereo partly drawn) [Compound 69] | 66 to 400 nM | 70 to 80% |  |
| Cn1ncc2c1C=C1CCC3C([C@@H](O)CC4(C)C3CC[C@]4(O)C(=O)CSc3ccccn3)C1(C)C2 (stereo partly drawn) [Compound 32] |  | < 60% |  |
| C[C@]12Cc3cnn(-c4ccc(F)cc4)c3C=C1CCC1C2[C@@H](O)C[C@@]2(C)C1CC[C@]2(O)C(=O)NC1(c2ncc(F)cc2F)CC1 (stereo partly drawn) [Compound 8] |  |  | IC50 (IL-8; [5]): 0.06 to 20 nM; Emax (IL-8; [6]): > 80% |
| CC12Cc3cnn(-c4ccccn4)c3C=C1CCC1C2[C@@H](O)CC2(C)C1CC[C@]2(O)C(=O)CSc1nc2cccnc2s1 (stereo partly drawn) [Compound 42] | 66 to 400 nM | 70 to 80% |  |
| CC12Cc3cnn(-c4ccc(F)cc4)c3C=C1CCC1C2[C@@H](O)CC2(C)C1CC[C@]2(OC(=O)c1ccco1)C(=O)NCCc1cnccn1 (stereo partly drawn) [Compound 17] |  |  | IC50 (IL-8; [5]): 0.06 to 20 nM; Emax (IL-8; [6]): > 80% |
| COc1ccc(-n2ncc3c2C=C2CCC4C([C@@H](O)CC5(C)C4CC[C@]5(O)C(=O)CSc4ccccn4)C2(C)C3)cc1 (stereo partly drawn) [Compound 88] | 66 to 400 nM | 60 to 70% |  |
| CC12Cc3cnn(C4CCOCC4)c3C=C1CCC1C2[C@@H](O)CC2(C)C1CC[C@]2(O)C(=O)CSc1ccc2ccccc2n1 (stereo partly drawn) [Compound 74] | 66 to 400 nM | 70 to 80% | Emax [1, 2]: 56% |
| C[C@]12Cc3cnn(-c4ccc(F)cc4)c3C=C1CCC1C2[C@@H](O)C[C@@]2(C)C1CC[C@]2(O)C(=O)NCCc1nc2ccccc2o1 (stereo partly drawn) [Compound 12] |  |  | IC50 (IL-8; [5]): 0.06 to 20 nM; Emax (IL-8; [6]): > 80% |

| SMILES | IC50 (IL-8; [3]) | Emax (IL-8; [4]) | further results |
| --- | --- | --- | --- |
| Cc1ccccc1-n1ncc2c1C=C1CCC3C([C@@H](O)CC4(C)C3CC[C@]4(O)C(=O)CSc3ccccn3)C1(C)C2 (stereo partly drawn) [Compound 80] |  | < 60% |  |
| CC12Cc3cnn(CCC#N)c3C=C1CCC1C2[C@@H](O)CC2(C)C1CC[C@]2(O)C(=O)CSc1cnc2ccccc2n1 (stereo partly drawn) [Compound 58] |  | < 60% |  |
| Cc1ccnc(SCC(=O)[C@@]2(O)CCC3C4CCC5=Cc6c(cnn6-c6ccccn6)CC5(C)C4[C@@H](O)CC32C)n1 (stereo partly drawn) [Compound 45] | 21 to 65 nM | > 80% |  |
| Cn1c(SCC(=O)[C@@]2(O)CCC3C4CCC5=Cc6c(cnn6-c6ccc(F)cc6)CC5(C)C4[C@@H](O)CC32C)nc2ccccc21 (stereo partly drawn) [Compound 2] | 0.06 to 20 nM | > 80% |  |
| Cn1c(SCC(=O)[C@@]2(O)CCC3C4CCC5=Cc6c(cnn6C6CCOCC6)CC5(C)C4[C@@H](O)CC32C)nc2ccccc21 (stereo partly drawn) [Compound 70] | 21 to 65 nM | > 80% |  |
| CC12Cc3cnn(-c4ccc(F)cc4)c3C=C1CCC1C2[C@@H](O)CC2(C)C1CC[C@]2(O)C(=O)NCc1ccccc1 (stereo partly drawn) [Compound 3] |  |  | IC50 (IL-8; [5]): 0.06 to 20 nM; Emax (IL-8; [6]): > 80% |
| CC12Cc3cnn(-c4ccc(F)cc4)c3C=C1CCC1C2[C@@H](O)CC2(C)C1CC[C@]2(O)C(=O)CSc1nc2ccc(N)cc2s1 (stereo partly drawn) [Compound 102] | 0.06 to 20 nM | > 80% |  |
| Cn1ncc2c1C=C1CCC3C([C@@H](O)CC4(C)C3CC[C@]4(O)C(=O)CSc3cnc4ccccc4n3)C1(C)C2 (stereo partly drawn) [Compound 30] | 66 to 400 nM | 60 to 70% |  |
| COc1ccc(-n2ncc3c2C=C2CCC4C([C@@H](O)CC5(C)C4CC[C@]5(O)C(=O)CSc4nc5cccnc5s4)C2(C)C3)cc1 (stereo partly drawn) [Compound 87] | 66 to 400 nM | 60 to 70% |  |
| CC12Cc3cnn(-c4ccccc4)c3C=C1CCC1C2[C@@H](O)CC2(C)C1CC[C@]2(O)C(=O)CSc1ccc2ccccc2n1 (stereo partly drawn) [Compound 15] | 0.06 to 20 nM | > 80% |  |
| Cc1ccnc(SCC(=O)[C@@]2(O)CCC3C4CCC5=Cc6c(cnn6CCC#N)CC5(C)C4[C@@H](O)CC32C)n1 (stereo partly drawn) [Compound 59] | 66 to 400 nM | 60 to 70% |  |
| C[C@]12Cc3cnn(-c4ccc(F)cc4)c3C=C1CCC1C2[C@@H](O)C[C@@]2(C)C1CC[C@]2(O)C(=O)NC1(c2ccccc2)CC1 (stereo partly drawn) [Compound 4] |  |  | IC50 (IL-8; [5]): 0.06 to 20 nM; Emax (IL-8; [6]): > 80% |
| CC12Cc3cnn(-c4ccccn4)c3C=C1CCC1C2[C@@H](O)CC2(C)C1CC[C@]2(O)C(=O)CSc1nc2ccccc2[nH]1 (stereo partly drawn) [Compound 38] | 401 to 1000 nM | 60 to 70% |  |
| CC12Cc3cnn(-c4ccccn4)c3C=C1CCC1C2[C@@H](O)CC2(C)C1CC[C@]2(O)C(=O)CSc1ccccn1 (stereo partly drawn) [Compound 46] | 66 to 400 nM | 70 to 80% |  |
| CC12Cc3cnn(C(C)(C)C)c3C=C1CCC1C2[C@@H](O)CC2(C)C1CC[C@]2(O)C(=O)CSc1nc2ccccc2s1 (stereo partly drawn) [Compound 62] |  | < 60% |  |
| CC12Cc3cnn(C4CCOCC4)c3C=C1CCC1C2[C@@H](O)CC2(C)C1CC[C@]2(O)C(=O)CSc1nc2cccnc2s1 (stereo partly drawn) [Compound 71] | 66 to 400 nM | > 80% | Emax [1, 2]: 85% |
| CC12Cc3cnn(CCC#N)c3C=C1CCC1C2[C@@H](O)CC2(C)C1CC[C@]2(O)C(=O)CSc1nc2ccccc2o1 (stereo partly drawn) [Compound 50] | 66 to 400 nM | 70 to 80% |  |
| Cc1nc(SCC(=O)[C@@]2(O)CCC3C4CCC5=Cc6c(cnn6C6CCCCC6)CC5(C)C4[C@@H](O)CC32C)sc1C (stereo partly drawn) [Compound 130] | 0.06 to 20 nM | > 80% |  |
| COc1ccc2sc(SCC(=O)[C@@]3(O)CCC4C5CCC6=Cc7c(cnn7-c7ccccn7)CC6(C)C5[C@@H](O)CC43C)nc2c1 (stereo partly drawn) [Compound 39] |  | < 60% |  |
